Where two headings read alike, the source gives them in different places.
What was measured:
CYP3A4 (CYP3A) = CYP3A4 (CYP3A) (Homo sapiens, UniProt P08684); experiment: in vitro; details: microsomes, pH 7.4;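 also: inhibition of CYP3A-mediated 1-hydroxymidazolam formation after 10 min incubation with NADPH, quantified by HPLC MS relative to metabolite produced without test compound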
[1] = tested on: Aβ40 in conditioned medium of cells stably expressing Amyloid Precursor Protein (APP); experiment: In vitro BACE cell-based assay (Aβ40 in conditioned medium, sandwich ELISA); details: Homo sapiens;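 also: compounds added as a dilution series, secreted peptide quantified by europium time-resolved fluorescence readout, potency fitted from percent of control versus compound concentration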
[2] = Microsomal stability assay, rat liver microsomes; details: rat liver microsomes;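 also: rat liver microsomes (0.25 mg/mL) with about 1 µM compound plus 1 mM NADPH, pH 7.4, 37 °C for 30 min, parent left measured by LC-MS/MS against 0 min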
CYP2D6 = CYP2D6 (Homo sapiens, UniProt P10635); experiment: CYP2D6 inhibition assay (bufuralol, pooled human liver microsomes)
Sequence of CYP2D6 (P10635 whole entry): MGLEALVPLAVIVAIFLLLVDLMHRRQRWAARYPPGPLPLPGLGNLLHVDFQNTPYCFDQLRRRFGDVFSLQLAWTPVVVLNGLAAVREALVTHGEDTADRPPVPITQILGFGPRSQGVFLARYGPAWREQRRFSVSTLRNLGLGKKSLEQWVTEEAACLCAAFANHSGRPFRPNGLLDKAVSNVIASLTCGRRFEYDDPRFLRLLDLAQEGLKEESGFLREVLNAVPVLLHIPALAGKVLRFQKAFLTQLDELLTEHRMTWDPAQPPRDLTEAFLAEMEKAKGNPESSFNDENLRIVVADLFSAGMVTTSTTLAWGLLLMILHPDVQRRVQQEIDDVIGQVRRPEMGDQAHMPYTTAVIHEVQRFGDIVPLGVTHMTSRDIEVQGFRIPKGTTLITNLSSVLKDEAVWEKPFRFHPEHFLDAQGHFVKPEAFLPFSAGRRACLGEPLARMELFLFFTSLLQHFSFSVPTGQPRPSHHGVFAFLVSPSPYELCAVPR

[3] = biological target: Beta Secretase enzyme (BACE) (Homo sapiens, UniProt P56817); experiment: In vitro enzymatic BACE FRET (fluorescence resonance energy transfer) assay; format: biochemical;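 also: fluorescence read after 1 h with 50 nM quenched peptide substrate spanning the BACE cleavage site, in pH 4.2 acetate buffer containing 10% DMSO and nonionic detergent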
Sequence of Beta Secretase enzyme (BACE) (P56817 46-501): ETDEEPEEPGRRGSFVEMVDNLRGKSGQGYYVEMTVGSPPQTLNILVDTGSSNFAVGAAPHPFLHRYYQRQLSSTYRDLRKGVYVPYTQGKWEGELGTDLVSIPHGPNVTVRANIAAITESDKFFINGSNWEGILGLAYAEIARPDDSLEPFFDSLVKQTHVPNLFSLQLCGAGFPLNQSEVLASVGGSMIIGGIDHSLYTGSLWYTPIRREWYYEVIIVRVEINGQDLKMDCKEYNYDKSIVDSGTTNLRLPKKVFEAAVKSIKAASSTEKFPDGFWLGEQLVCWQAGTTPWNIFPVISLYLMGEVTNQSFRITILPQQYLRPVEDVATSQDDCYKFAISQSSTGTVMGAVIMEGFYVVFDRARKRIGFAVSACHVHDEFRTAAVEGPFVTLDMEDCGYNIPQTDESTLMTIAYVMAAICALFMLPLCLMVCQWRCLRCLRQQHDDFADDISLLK

[4] = Microsomal stability assay, human liver microsomes; details: human liver microsomes;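 also: pooled human liver microsomes at 0.25 mg/mL with 1 µM compound and NADPH at 37 °C, pH 7.4, for 30 min, unchanged parent quantified by LC-MS/MS against the 0 min sample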
[5] = HEK293, HEK cells, read-out: HEK cell assay (IC50)
[6] = read-out: BACE1 FRET assay (IC50)

Sequence of CYP3A4 (CYP3A) (P08684 2-503): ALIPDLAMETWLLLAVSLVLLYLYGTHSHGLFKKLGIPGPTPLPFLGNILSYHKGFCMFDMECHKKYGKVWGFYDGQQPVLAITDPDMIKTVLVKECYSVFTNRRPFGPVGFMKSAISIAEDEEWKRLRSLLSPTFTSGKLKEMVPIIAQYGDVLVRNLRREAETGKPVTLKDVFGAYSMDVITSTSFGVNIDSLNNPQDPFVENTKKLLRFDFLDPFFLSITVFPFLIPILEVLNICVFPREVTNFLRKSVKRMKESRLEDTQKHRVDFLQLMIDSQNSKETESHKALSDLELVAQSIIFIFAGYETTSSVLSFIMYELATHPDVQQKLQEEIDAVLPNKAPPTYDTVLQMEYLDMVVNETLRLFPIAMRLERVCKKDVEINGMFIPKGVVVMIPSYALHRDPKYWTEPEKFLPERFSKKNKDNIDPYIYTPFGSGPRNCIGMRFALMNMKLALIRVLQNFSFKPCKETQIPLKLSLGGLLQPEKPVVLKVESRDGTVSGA

SMILES	IC50 (CYP3A4 (CYP3A)) [nM]	IC50 [1, 5] [nM]	RLM [2] [µL/min/mg]	IC50 (CYP2D6; 2D6 IC50, CYP2D6 inhibition) [µM]	IC50 [3, 6] [nM]	HLM [4] [µL/min/mg]	IC50 ([1]; HEK293, HEK cell-based assay IC50, read-out: HEK cell assay) [nM]	IC50 (CYP2D6; 2D6 IC50 (uM), CYP2D6 inhibition) [µM]	IC50 ([3]; BACE enzyme assay IC50, read-out: BACE1 FRET assay) [nM]
CO[C@H](C)C(=O)N[C@@H](Cc1ccc2c(c1)OCO2)[C@H](O)CN[C@H]1CC2(CCC2)C(=O)c2ncc(CC(C)(C)C)cc21 [compound 626]	500	108	260	14.4	133	153	–	–	–
CC(=O)N[C@@H](Cc1cc(F)cc(F)c1)[C@H](O)CN[C@H]1CC2(CCC2)Oc2ncc(C(F)(F)C(C)(C)C)cc21 [compound 627]	2100	47	166	26.1	7	829	–	–	–
COCC(=O)N[C@@H](Cc1cc(F)cc(F)c1)[C@H](O)CN[C@H]1CC2(CCC2)Oc2c1cc(CC(C)(C)C)nc2-c1ccc2c(c1)OCO2 [compound 629]	1200	121	209	≥ 27	9	171	–	–	–
COCC(=O)N[C@@H](Cc1cc(F)cc(F)c1)[C@H](O)CN[C@H]1CC2(CCC2)Oc2c(-c3cncn3C)cc(CC(C)C)cc21 [compound 631]	100	4	209	3.9	19	36	–	–	–
COCC(=O)N[C@@H](Cc1cncs1)[C@H](O)CN[C@H]1CC2(CCC2)Oc2c(-c3ccncc3)cc(CC(C)(C)C)cc21 [compound 633]	100	11	153	3	21	53	–	–	–
CO[C@H](C)C(=O)N[C@@H](Cc1ccccc1)[C@H](O)CN[C@H]1CC2(CCC2)Oc2c(-c3cncn3C)cc(CC(C)C)cc21 [compound 634]	100	14	340	4.5	126	50	–	–	–
CC(=O)N[C@@H](Cc1cccc(C#N)c1)[C@H](O)CN[C@H]1CC2(CCC2)Oc2c(-c3ccncc3)cc(CC(C)(C)C)cc21 [compound 637]	100	4	105	2.8	10	34	–	–	–
COCC(=O)N[C@@H](Cc1cccc(F)c1)[C@H](O)CN[C@H]1CC2(CCC2)Oc2c(-c3ccnc(Cl)c3)cc(CC(C)(C)C)cc21 [compound 639, N-((1S,2R)-3-(((4S)-8-(2-chloro-4-pyridinyl)-6-(2,2-dimethylpropyl)-3,4-dihydrospiro[chromene-2,1′-cyclobutan]-4-yl)amino)-1-(3-fluorobenzyl)-2-hydroxypropyl)-2-methoxyacetamide]	1200	25	399	1.8	5	706	–	–	–
CC(=O)N[C@@H](Cc1cc2c(c(-c3ccncc3)c1)OCO2)[C@H](O)CN[C@H]1CC2(CCC2)Oc2ncc(CC(C)(C)C)cc21 [compound 645]	100	406	62	0.3	441	451	–	–	–
CC(=O)N[C@@H](Cc1cc(F)cc(-c2ccco2)c1)[C@H](O)CN[C@H]1CC2(CCC2)Oc2ccc(CC(C)(C)C)cc21 [compound 646]	2000	104	344	1.6	4	326	–	–	–
CC(C)(C)Cc1cnc2c(c1)[C@@H](NC[C@@H](O)[C@H](Cc1ccc(F)cc1)NC(=O)COC(F)F)CC1(CCC1)O2 [compound 647]	400	39	269	2.7	8	303	–	–	–
CC(=O)N[C@@H](Cc1ccc(F)c(-c2cccnc2)c1)[C@H](O)CN[C@H]1CC2(CCC2)Oc2ccc(CC(C)(C)C)cc21 [compound 648]	100	45	560	0.4	8	551	–	–	–
CC(=O)N[C@@H](Cc1cc(F)cc(-c2cccnc2)c1)[C@H](O)CN[C@H]1CC2(CCC2)Oc2ccc(CC(C)(C)C)cc21 [compound 649]	300	30	482	0.5	7	706	–	–	–
CO[C@H](C)C(=O)N[C@@H](Cc1ccc(O)c(O)c1)[C@H](O)CN[C@H]1CC2(CCC2)Oc2ncc(CC(C)(C)C)cc21 [compound 651]	1600	12	147	10.8	8	171	–	–	–
CO[C@H](C)C(=O)N[C@@H](Cc1ccncc1)[C@H](O)CN[C@H]1CC2(CCC2)Oc2ncc(C(F)(F)F)cc21 [compound 653]	600	> 10000	114	5.8	6740	178	–	–	–
COCC(=O)N[C@@H](Cc1cccc(F)c1)[C@H](O)CN[C@H]1CC2(CCC2)Oc2c(-c3ccnc(OC)c3)cc(CC(C)(C)C)cc21 [compound 654]	1000	34	477	9.9	6	399	–	–	–
COCC(=O)N[C@@H](Cc1ccc2c(c1)OCO2)[C@H](O)CN[C@H]1CC2(CCC2)Oc2c1cc(CC(C)C)nc2Cl [compound 656]	100	774	180	5.3	51	131	–	–	–
CO[C@H](C)C(=O)N[C@@H](Cc1ccc2c(c1)OCO2)[C@H](O)CN[C@H]1CC2(CCC2)Oc2c1cc(CC(C)C)nc2Cl [compound 657, (2R)-N-((1S,2R)-1-(1,3-benzodioxol-5-ylmethyl)-3-(((4′S)-8′-chloro-6′-(2-methylpropyl)-3′,4′-dihydrospiro[cyclobutane-1,2′-pyrano[2,3-c]pyridin]-4′-yl)amino)-2-hydroxypropyl)-2-methoxypropanamide]	160	524	178	5.3	30	96	–	–	–
CC(=O)N[C@@H](Cc1cccc(-c2cncs2)c1)[C@H](O)CN[C@H]1CC2(CCC2)Oc2ncc(CC(C)(C)C)cc21 [compound 658, N-((1S,2R)-3-(((4′S)-6′-(2,2-dimethylpropyl)-3′,4′-dihydrospiro[cyclobutane-1,2′-pyrano[2,3-b]pyridin]-4′-yl)amino)-2-hydroxy-1-(3-(1,3-thiazol-5-yl)benzyl)propyl)acetamide]	100	10	120	0.3	6	130	–	–	–
CCOCC(=O)N[C@@H](Cc1cccc(F)c1)[C@H](O)CN[C@H]1CC2(CCC2)Oc2ncc(CC(C)(C)C)cc21 [compound 660]	200	18	775	1.9	3	829	–	–	–
COCC(=O)N[C@@H](Cc1ccc(F)cc1)[C@H](O)CN[C@H]1CC(C)(C)Oc2ncc(CC(C)(C)C)cc21 [compound 663]	1700	21	133	10.5	13	163	–	–	–
COCC(=O)N[C@@H](Cc1ccc2c(c1)OCO2)[C@H](O)CN[C@H]1CC2(CCC2)Oc2cnc(CC(C)C)cc21 [compound 664]	≤ 30	192	276	2.3	118	193	–	–	–
CO[C@H](C)C(=O)N[C@@H](Cc1ccc2c(c1)OCO2)[C@H](O)CN[C@H]1CC2(CCC2)Oc2nc3c(cc21)[C@H](C(C)C)CO3 [compound 665]	200	249	126	4	927	61	–	–	–
CO[C@H](C)C(=O)N[C@@H](Cc1ccc2c(c1)OCO2)[C@H](O)CN[C@H]1CC2(CCC2)Oc2cnc(CC(C)C)cc21 [compound 666]	≤ 30	175	228	2.4	124	140	–	–	–
COCC(=O)N[C@@H](Cc1cc(F)cc(F)c1)[C@H](O)CN[C@H]1CC2(CCC2)Oc2c1cc(CC(C)C)nc2Cl [compound 667]	600	54	682	6.3	5	399	–	–	–
COCC(=O)N[C@@H](Cc1cccc(F)c1)[C@H](O)CN[C@H]1CC2(CCC2)Oc2c(-c3ccncc3F)cc(CC(C)(C)C)cc21 [compound 668]	100	18	197	2.9	4	118	–	–	–
COCC(=O)N[C@@H](Cc1ccc2c(c1)OCO2)[C@H](O)CN[C@H]1CC2(CCC2)Oc2c1cc(CC(C)C)nc2-c1ccncc1 [compound 669]	≤ 30	–	77	–	–	45	87	0.3	34

Reference: patent US8163909B2, “Substituted hydroxyethyl amine compounds as beta-secretase modulators and methods of use” (Amgen Inc., priority 2007, dated 2012)
